Experiment: xn = mol fraction of the nth substance listed
Settings: 101 kPa, Liquid; for mass density: Vibrating tube method; for speed of sound: sound velocity cell

CC(=O)[O-].[NH3+]CCO [2-hydroxyethylammonium acetate] + O
Settings	mass density [kg/m3]	speed of sound [m/s]
288.15 K, x1 = 0.051	1055.26	1676.3
288.15 K, x1 = 0.1019	1085.14	1768.9
288.15 K, x1 = 0.1963	1116.52	1839
288.15 K, x1 = 0.2894	1131.28	1851.1
288.15 K, x1 = 0.3959	1140.75	1843.1
288.15 K, x1 = 0.5016	1145.83	1833.6
288.15 K, x1 = 0.5821	1148.34	1831.6
288.15 K, x1 = 0.6837	1150.31	1824.3
288.15 K, x1 = 0.7763	1152.17	1824.4
288.15 K, x1 = 0.8761	1153.59	1817.1
288.15 K, x1 = 0.9137	1153.92	1819.5
288.15 K, x1 = 1	1154.7	1817.2
290.65 K, x1 = 0.051	1054.36	1679
290.65 K, x1 = 0.1019	1084.06	1768.6
290.65 K, x1 = 0.1963	1115.24	1836.1
290.65 K, x1 = 0.2894	1129.93	1847.3
290.65 K, x1 = 0.3959	1139.38	1838.7
290.65 K, x1 = 0.5016	1144.47	1828.7
290.65 K, x1 = 0.5821	1146.91	1826.5
290.65 K, x1 = 0.6837	1148.88	1818.9
290.65 K, x1 = 0.7763	1150.75	1818.5
290.65 K, x1 = 0.8761	1152.16	1810.7
290.65 K, x1 = 0.9137	1152.5	1812.8
290.65 K, x1 = 1	1153.28	1810
293.15 K, x1 = 0.051	1053.41	1681.4
293.15 K, x1 = 0.1019	1082.96	1768.1
293.15 K, x1 = 0.1963	1113.95	1833.1
293.15 K, x1 = 0.2894	1128.59	1843.4
293.15 K, x1 = 0.3959	1138.01	1834.2
293.15 K, x1 = 0.5016	1143.09	1823.9
293.15 K, x1 = 0.5821	1145.54	1821.6
293.15 K, x1 = 0.6837	1147.45	1813.6
293.15 K, x1 = 0.7763	1149.34	1812.9
293.15 K, x1 = 0.8761	1150.75	1804.6
293.15 K, x1 = 0.9137	1151.09	1806.5
293.15 K, x1 = 1	1151.87	1803.2
295.65 K, x1 = 0.051	1052.44	1683.6
295.65 K, x1 = 0.1019	1081.85	1767.5
295.65 K, x1 = 0.1963	1112.66	1830.1
295.65 K, x1 = 0.2894	1127.24	1839.5
295.65 K, x1 = 0.3959	1136.62	1829.7
295.65 K, x1 = 0.5016	1141.71	1819.1
295.65 K, x1 = 0.5821	1144.18	1816.5
295.65 K, x1 = 0.6837	1146.02	1808.4
295.65 K, x1 = 0.7763	1147.92	1807.5
295.65 K, x1 = 0.8761	1149.33	1798.7
295.65 K, x1 = 0.9137	1149.67	1800.5
295.65 K, x1 = 1	1150.45	1796.8
298.15 K, x1 = 0.051	1051.43	1685.5
298.15 K, x1 = 0.1019	1080.72	1766.7
298.15 K, x1 = 0.1963	1111.36	1827
298.15 K, x1 = 0.2894	1125.89	1835.5
298.15 K, x1 = 0.3959	1135.24	1825.2
298.15 K, x1 = 0.5016	1140.33	1814.2
298.15 K, x1 = 0.5821	1142.82	1811.6
298.15 K, x1 = 0.6837	1144.63	1803.3
298.15 K, x1 = 0.7763	1146.5	1802.1
298.15 K, x1 = 0.8761	1147.91	1793
298.15 K, x1 = 0.9137	1148.26	1794.7
298.15 K, x1 = 1	1149.04	1790.7
300.65 K, x1 = 0.051	1050.38	1687.2
300.65 K, x1 = 0.1019	1079.57	1765.8
300.65 K, x1 = 0.1963	1110.06	1823.9
300.65 K, x1 = 0.2894	1124.53	1831.6
300.65 K, x1 = 0.3959	1133.86	1820.6
300.65 K, x1 = 0.5016	1138.94	1809.4
300.65 K, x1 = 0.5821	1141.44	1806.7
300.65 K, x1 = 0.6837	1143.27	1798.2
300.65 K, x1 = 0.7763	1145.08	1796.9
300.65 K, x1 = 0.8761	1146.49	1787.4
300.65 K, x1 = 0.9137	1146.85	1789.1
300.65 K, x1 = 1	1147.63	1784.8
303.15 K, x1 = 0.051	1049.3	1688.6
303.15 K, x1 = 0.1019	1078.39	1764.8
303.15 K, x1 = 0.1963	1108.74	1820.6
303.15 K, x1 = 0.2894	1123.17	1827.5
303.15 K, x1 = 0.3959	1132.47	1816
303.15 K, x1 = 0.5016	1137.56	1804.6
303.15 K, x1 = 0.5821	1140.07	1801.9
303.15 K, x1 = 0.6837	1141.9	1793.2
303.15 K, x1 = 0.7763	1143.67	1791.7
303.15 K, x1 = 0.8761	1145.07	1782
303.15 K, x1 = 0.9137	1145.43	1783.6
303.15 K, x1 = 1	1146.22	1779
305.65 K, x1 = 0.051	1048.18	–
305.65 K, x1 = 0.1019	1077.21	–
305.65 K, x1 = 0.1963	1107.43	–
305.65 K, x1 = 0.2894	1121.8	–
305.65 K, x1 = 0.3959	1131.08	–
305.65 K, x1 = 0.5016	1136.16	–
305.65 K, x1 = 0.5821	1138.68	–
305.65 K, x1 = 0.6837	1140.52	–
305.65 K, x1 = 0.7763	1142.31	–
305.65 K, x1 = 0.8761	1143.65	–
305.65 K, x1 = 0.9137	1144.01	–
305.65 K, x1 = 1	1144.8	–
